Experiments:
[1] = biological target: Dual specificity protein kinase CLK1 (Homo sapiens, UniProt P49759); conditions: at 10 µM
[2] = biological target: T1, Serine/threonine-protein kinase RIO3 (Homo sapiens) (UniProt O14730); assay: Selectivity interaction (Ambit KINOMEscan and KiNATiv profiling in Jurkat cells) EUB0000090b RIOK3; assay type: cell-based; conditions: at 1 µM
T1 sequence (whole entry): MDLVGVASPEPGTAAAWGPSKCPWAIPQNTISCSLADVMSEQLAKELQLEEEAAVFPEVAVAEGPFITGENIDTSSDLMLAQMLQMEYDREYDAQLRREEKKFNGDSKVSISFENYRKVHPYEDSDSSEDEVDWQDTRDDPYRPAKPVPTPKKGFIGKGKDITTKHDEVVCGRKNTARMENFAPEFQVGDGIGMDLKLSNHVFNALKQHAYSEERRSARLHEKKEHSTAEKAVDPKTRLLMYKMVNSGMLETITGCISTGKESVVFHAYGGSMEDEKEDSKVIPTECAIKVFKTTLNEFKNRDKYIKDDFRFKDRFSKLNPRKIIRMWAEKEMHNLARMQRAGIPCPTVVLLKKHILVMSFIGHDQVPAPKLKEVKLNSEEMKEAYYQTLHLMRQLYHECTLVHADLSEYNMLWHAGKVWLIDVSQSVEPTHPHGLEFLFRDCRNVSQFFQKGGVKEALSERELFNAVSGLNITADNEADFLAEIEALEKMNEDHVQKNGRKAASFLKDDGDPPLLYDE

[3] = biological target: T2, Serine/threonine-protein kinase STK11 (Homo sapiens) (UniProt Q15831); assay: Selectivity interaction (KinomeScan (DiscoverX)) EUB0000655a STK11; conditions: at 10 µM
T2 sequence (whole entry): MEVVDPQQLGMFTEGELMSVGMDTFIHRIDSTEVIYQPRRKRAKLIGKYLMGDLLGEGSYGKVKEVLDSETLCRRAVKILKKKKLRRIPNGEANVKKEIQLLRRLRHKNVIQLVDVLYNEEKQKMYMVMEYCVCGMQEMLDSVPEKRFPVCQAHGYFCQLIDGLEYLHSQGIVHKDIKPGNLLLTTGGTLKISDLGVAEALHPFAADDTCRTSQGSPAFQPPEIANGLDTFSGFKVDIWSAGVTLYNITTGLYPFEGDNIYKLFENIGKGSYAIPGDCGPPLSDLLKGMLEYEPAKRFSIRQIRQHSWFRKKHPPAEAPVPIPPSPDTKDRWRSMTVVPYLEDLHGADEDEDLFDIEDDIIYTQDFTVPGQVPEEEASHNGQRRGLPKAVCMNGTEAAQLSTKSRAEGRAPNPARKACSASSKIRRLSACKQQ

[4] = biological target: T3, Serine/threonine-protein kinase Chk1 (Homo sapiens) (UniProt O14757); assay: Selectivity interaction (KinomeScan (DiscoverX)) EUB0000045b CHEK1
T3 sequence (whole entry): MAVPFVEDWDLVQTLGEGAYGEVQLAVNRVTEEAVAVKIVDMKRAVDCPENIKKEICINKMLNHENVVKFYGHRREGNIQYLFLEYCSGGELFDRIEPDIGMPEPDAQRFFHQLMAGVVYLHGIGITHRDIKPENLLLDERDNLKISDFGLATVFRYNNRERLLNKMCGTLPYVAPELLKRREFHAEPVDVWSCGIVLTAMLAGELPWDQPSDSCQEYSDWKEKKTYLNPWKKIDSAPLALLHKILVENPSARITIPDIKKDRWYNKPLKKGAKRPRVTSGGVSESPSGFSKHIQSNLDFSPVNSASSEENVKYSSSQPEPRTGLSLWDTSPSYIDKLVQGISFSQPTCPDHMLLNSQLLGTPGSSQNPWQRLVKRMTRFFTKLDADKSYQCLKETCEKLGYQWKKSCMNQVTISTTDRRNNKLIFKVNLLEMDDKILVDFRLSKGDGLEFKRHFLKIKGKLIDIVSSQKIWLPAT

[5] = biological target: Glycogen synthase kinase-3 beta (Homo sapiens, UniProt P49841); assay: Selectivity interaction (KinomeScan (DiscoverX)) EUB0000045b GSK3B
[6] = biological target: Tyrosine-protein kinase JAK1 (Homo sapiens, UniProt P23458); assay: Selectivity interaction (ActivX KiNativ screen (kinase selectivity in THP-1 cell lysates)) EUB0000639a JAK1; assay type: subcellular; conditions: lysate, at 1 µM
[7] = biological target: Proto-oncogene tyrosine-protein kinase receptor Ret (Homo sapiens, UniProt P07949); assay: Selectivity interaction (Kinase panel (Invitrogen)) EUB0000639a RET; conditions: at 200 nM
[8] = biological target: Tyrosine-protein kinase JAK2 (Homo sapiens, UniProt O60674); assay: Selectivity interaction (Kinase panel (33PanQinase(R) Activity Assay)) EUB0000877a JAK2
[9] = biological target: Tyrosine-protein kinase BTK (Homo sapiens, UniProt Q06187); assay: Selectivity interaction (Kinase screening (Nanosyn)) EUB0000604a BTK
[10] = biological target: Insulin receptor-related protein (Homo sapiens) (UniProt P14616); assay: Selectivity interaction (KinomeScan (DiscoverX)) EUB0000695a INSRR; conditions: at 100 nM
[11] = biological target: T4, Muscle, skeletal receptor tyrosine-protein kinase (Homo sapiens) (UniProt O15146); assay: Selectivity interaction (KinomeScan (DiscoverX)) EUB0000695a MUSK; conditions: at 100 nM
T4 sequence (whole entry): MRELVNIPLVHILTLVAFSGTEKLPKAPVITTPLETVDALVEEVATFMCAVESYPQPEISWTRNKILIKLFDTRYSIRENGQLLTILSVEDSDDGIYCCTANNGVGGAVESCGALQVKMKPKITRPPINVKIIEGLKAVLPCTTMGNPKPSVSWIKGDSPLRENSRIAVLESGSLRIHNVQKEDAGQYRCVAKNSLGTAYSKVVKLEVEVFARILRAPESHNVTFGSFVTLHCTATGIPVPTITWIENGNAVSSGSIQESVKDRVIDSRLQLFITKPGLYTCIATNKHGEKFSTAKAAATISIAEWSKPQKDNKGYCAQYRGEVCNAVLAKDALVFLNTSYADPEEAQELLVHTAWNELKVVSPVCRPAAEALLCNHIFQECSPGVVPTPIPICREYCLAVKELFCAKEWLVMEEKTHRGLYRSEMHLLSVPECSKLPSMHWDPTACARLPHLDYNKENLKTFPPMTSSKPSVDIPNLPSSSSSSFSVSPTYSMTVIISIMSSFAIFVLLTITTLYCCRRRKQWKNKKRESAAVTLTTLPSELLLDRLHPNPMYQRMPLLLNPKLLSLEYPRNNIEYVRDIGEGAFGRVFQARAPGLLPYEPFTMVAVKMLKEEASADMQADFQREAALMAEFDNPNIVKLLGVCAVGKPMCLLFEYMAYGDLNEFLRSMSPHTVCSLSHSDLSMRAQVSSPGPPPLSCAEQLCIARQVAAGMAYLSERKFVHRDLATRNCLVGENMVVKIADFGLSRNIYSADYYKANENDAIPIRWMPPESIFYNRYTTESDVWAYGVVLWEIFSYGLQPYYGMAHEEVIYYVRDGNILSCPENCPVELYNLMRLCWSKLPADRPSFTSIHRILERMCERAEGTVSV

Sequence of Glycogen synthase kinase-3 beta (P49841 whole entry, looked up): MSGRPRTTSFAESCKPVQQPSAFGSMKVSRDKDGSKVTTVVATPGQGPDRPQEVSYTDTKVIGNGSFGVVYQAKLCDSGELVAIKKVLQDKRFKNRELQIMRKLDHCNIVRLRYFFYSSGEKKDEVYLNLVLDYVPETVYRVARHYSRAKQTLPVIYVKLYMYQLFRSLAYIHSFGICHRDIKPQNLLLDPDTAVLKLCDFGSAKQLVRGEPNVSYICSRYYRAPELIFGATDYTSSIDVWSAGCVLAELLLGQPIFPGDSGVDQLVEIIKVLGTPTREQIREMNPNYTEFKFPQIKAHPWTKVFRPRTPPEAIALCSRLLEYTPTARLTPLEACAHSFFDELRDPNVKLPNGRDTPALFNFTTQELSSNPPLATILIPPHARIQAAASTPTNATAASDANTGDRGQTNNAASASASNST
Sequence of Insulin receptor-related protein (Homo sapiens) (P14616 27-742 limits assumed): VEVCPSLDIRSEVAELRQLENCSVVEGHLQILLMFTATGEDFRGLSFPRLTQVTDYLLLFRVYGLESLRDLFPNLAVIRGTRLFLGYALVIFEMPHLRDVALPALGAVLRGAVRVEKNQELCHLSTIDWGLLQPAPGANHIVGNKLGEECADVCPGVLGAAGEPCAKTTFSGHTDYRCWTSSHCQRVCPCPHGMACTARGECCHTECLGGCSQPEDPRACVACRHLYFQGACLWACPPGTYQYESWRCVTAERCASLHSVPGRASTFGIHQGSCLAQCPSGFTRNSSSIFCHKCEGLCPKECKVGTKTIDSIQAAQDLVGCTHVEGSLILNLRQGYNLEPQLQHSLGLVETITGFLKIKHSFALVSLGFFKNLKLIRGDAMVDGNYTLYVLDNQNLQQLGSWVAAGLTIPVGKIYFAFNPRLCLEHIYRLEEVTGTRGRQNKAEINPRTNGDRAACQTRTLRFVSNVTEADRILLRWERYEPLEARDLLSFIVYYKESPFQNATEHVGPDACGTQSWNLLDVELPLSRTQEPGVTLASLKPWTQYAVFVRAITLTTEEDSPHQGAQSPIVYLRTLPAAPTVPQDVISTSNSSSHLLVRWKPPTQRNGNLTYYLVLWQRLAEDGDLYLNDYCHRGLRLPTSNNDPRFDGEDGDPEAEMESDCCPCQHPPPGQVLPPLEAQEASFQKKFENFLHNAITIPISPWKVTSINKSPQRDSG
Sequence of Insulin receptor-related protein (Homo sapiens) (P14616 747-1297 limits assumed): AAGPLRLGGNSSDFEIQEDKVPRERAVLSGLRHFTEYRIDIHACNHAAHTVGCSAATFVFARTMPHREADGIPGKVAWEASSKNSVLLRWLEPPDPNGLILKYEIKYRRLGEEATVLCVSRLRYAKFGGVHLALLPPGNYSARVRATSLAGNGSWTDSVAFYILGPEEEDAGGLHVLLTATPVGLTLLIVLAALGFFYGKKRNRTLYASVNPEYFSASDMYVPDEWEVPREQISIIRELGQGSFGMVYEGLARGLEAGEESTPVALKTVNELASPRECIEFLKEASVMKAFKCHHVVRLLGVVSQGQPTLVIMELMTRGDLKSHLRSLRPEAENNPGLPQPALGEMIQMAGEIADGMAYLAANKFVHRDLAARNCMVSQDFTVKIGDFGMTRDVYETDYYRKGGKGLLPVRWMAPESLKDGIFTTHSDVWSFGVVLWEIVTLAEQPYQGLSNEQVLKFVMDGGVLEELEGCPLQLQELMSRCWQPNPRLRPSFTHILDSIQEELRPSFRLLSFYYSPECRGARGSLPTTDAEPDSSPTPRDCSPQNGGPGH
Sequence of Proto-oncogene tyrosine-protein kinase receptor Ret (P07949 whole entry): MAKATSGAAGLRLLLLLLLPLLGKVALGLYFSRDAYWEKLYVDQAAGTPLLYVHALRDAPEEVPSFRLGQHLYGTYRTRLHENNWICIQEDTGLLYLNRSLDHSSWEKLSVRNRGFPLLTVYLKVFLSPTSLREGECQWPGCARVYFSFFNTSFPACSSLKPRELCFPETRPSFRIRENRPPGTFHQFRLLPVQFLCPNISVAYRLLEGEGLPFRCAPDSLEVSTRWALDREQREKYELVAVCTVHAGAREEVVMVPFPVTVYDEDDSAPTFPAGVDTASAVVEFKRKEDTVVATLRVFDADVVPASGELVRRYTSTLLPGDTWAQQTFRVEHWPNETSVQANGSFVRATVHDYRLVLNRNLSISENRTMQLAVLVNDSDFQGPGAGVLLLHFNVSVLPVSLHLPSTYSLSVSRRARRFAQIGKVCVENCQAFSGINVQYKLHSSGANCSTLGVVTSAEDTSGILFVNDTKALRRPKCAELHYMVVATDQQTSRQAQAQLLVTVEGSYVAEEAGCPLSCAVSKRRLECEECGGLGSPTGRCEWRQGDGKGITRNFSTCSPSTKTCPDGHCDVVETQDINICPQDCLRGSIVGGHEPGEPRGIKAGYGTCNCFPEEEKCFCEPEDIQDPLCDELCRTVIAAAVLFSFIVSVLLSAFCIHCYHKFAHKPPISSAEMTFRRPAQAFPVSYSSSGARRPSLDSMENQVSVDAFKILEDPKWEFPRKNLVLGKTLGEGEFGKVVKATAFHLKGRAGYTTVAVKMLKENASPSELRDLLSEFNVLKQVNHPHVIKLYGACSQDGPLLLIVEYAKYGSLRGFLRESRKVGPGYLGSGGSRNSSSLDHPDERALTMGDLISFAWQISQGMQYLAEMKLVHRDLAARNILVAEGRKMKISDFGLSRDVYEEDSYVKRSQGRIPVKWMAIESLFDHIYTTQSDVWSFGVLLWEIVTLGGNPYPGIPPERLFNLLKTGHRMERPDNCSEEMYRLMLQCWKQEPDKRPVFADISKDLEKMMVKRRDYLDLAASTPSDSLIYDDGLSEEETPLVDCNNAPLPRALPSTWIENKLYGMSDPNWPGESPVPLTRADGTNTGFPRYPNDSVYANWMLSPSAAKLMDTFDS
Sequence of Dual specificity protein kinase CLK1 (P49759 whole entry, looked up): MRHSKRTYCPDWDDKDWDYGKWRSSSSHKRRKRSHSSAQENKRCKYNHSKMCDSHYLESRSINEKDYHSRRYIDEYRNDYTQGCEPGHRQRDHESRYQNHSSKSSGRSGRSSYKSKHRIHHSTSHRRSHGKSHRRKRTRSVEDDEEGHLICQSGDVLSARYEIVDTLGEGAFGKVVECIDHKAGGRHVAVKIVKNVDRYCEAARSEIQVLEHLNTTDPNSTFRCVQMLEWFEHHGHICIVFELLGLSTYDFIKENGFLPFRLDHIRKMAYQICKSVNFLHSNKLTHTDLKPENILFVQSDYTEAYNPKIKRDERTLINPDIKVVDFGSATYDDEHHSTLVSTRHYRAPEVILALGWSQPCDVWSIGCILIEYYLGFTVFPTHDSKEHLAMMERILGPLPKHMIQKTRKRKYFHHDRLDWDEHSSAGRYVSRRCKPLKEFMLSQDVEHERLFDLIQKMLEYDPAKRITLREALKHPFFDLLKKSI
Sequence of Tyrosine-protein kinase BTK (Q06187 whole entry): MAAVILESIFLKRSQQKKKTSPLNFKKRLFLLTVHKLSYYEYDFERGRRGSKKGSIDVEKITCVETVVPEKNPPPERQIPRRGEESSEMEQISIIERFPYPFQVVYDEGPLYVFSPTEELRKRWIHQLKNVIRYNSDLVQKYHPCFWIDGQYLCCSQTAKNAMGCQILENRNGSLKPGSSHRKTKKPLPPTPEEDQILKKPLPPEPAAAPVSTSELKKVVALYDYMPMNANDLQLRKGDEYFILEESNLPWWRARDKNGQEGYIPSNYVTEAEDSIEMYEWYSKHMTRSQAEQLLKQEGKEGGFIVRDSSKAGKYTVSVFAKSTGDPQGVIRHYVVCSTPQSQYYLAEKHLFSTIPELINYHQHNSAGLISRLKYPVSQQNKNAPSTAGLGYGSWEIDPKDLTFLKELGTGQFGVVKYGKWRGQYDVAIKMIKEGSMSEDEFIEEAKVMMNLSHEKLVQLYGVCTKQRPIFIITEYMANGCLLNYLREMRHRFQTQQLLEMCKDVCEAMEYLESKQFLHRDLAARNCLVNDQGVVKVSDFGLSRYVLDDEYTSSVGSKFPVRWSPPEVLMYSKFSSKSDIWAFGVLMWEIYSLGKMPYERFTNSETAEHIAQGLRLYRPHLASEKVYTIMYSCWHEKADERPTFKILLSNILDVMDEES
Sequence of Tyrosine-protein kinase JAK2 (O60674 whole entry): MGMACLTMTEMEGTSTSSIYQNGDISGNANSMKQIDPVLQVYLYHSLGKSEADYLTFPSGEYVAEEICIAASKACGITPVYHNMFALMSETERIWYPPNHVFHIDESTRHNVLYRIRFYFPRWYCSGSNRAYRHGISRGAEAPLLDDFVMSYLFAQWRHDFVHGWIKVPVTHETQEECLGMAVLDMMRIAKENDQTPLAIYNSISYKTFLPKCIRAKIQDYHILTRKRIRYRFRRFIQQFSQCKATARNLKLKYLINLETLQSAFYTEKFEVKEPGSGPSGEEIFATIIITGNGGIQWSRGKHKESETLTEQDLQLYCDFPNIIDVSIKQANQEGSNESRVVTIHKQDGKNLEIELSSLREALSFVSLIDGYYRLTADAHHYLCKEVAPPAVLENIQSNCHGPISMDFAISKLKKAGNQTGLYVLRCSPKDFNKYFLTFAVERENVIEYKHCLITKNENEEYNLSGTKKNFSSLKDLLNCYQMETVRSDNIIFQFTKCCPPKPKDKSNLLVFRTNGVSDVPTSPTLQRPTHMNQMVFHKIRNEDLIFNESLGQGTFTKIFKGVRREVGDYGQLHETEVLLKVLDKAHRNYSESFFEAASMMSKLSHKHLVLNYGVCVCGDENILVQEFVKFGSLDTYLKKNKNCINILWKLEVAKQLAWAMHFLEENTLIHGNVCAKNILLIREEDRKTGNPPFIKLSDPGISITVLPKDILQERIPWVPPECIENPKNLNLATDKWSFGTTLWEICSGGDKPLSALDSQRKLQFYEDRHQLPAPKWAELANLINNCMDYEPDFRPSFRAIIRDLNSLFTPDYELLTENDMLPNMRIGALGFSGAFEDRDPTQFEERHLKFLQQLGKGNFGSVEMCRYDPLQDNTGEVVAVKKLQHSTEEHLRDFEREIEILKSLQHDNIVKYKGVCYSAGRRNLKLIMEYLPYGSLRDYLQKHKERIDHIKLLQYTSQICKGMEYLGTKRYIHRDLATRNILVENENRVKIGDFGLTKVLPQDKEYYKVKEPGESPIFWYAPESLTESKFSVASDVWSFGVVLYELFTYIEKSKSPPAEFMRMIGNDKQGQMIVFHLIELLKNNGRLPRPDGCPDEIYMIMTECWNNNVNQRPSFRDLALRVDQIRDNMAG

## CCN(CC)CCCCNc1ncc2cc(-c3cc(OC)cc(OC)c3)c(NC(=O)NC(C)(C)C)nc2n1
[1]
  % of control: 100%

## CN(C)C/C=C/C(=O)Nc1ccc(C(=O)N2CCCC(Nc3ncc(Cl)c(-c4c[nH]c5ccccc45)n3)C2)cc1 (stereo not drawn)
[2]
  % of control: 69%

## CN(C)CCOc1ccc(-c2nc(-c3ccncc3)c(-c3ccc4c(c3)CC/C4=N\O)[nH]2)cc1
[3]
  % of control: 88%

## C=CC(=O)Nc1cc(-n2c(=O)ccc3cnc4ccc(-c5ccc(NS(C)(=O)=O)cc5)cc4c32)ccc1C
[4]; at 1 µM
  % of control: 100%
[4]; at 10 µM
  % of control: 79%
[5]; at 1 µM
  % of control: 100%
[5]; at 10 µM
  % of control: 77%

## CC[C@@H]1[C@H](F)C(=O)N[C@@H]1COc1nccc2cc(C(N)=O)c(OC)cc12 [ZIMLOVISERTIB]
[6]
  % of inhibition: -1.3%
[7]
  % of inhibition: 58.9%

## CCC(=O)N1CC[C@H](Nc2ncnc3c2CN(c2cnc(OC)c(C(F)(F)F)c2)CC3)C1 [LENIOLISIB]
[8]
  IC50: > 10 µM

## Cc1cnc(Nc2ccc(F)cc2Cl)nc1-c1c[nH]c(C(=O)N[C@H](CO)c2cccc(Cl)c2)c1
[9]
  % of inhibition: 5%

## Cc1cc(F)c(C(=O)Nc2cccc(-c3nncn3C(C)C)n2)cc1-n1cnc(C2CC2)c1
[10]
  % of control: 88%
[11]
  % of control: 91%

— ChEMBL document CHEMBL5465560, “Selectivity Literature for EUbOPEN Chemogenomic Library” (2024)
